{
  "source": "patent US10272077B2",
  "about": "“Piperidinone carboxamide azaindane CGRP receptor antagonists” (Merck Sharp & Dohme Corp., priority 2010, dated 2019)",
  "origin": "cited, not measured here",
  "key": {"[1]": {"details": "control group (Petersen et al. 2005)"}, "[2]": {"details": "marmoset (Doods et al. 2000)"}, "[3]": {"details": "rats, prior administration (Williamson et al. 1997)"}, "[4]": {"details": "rat (Escott et al. 1995)"}},
  "note": "Ends that are not written are not given here.",
  "data": [
    {"compound": "NCCCC[C@H](NC(=O)[C@@H](Cc1cc(Br)c(O)c(Br)c1)NC(=O)N1CCC(N2Cc3ccccc3NC2=O)CC1)C(=O)N1CCN(c2ccncc2)CC1", "note": "[BIBN4096BS]", "values": [
      {"measurement": "treatment of acute attacks of migraine", "setting": "clinical trials (Olesen et al. 2004)", "result": "effective in treating acute attacks of migraine"},
      {"measurement": "prevention of headache induced by CGRP infusion", "setting": "[1]", "result": "able to prevent headache induced by CGRP infusion"},
      {"measurement": "effect on increase in facial blood flow", "setting": "[2]", "result": "could be blocked"}
    ]},
    {"compound": "O=C(N[C@@H]1CC[C@@H](c2cccc(F)c2F)CN(CC(F)(F)F)C1=O)N1CCC(n2c(=O)[nH]c3ncccc32)CC1", "note": "[telcagepant]", "values": [
      {"measurement": "antimigraine effectiveness", "setting": "phase III clinical trials, orally bioavailable", "result": "shown antimigraine effectiveness"}
    ]},
    {"compound": "CGRP(8-37) (VTHRLAGLLSRSGGVVKNNFVPTNVGSKAF; ends and bridges not checked; UniProt P06881 90-119, looked up, fragment) [a peptide CGRP receptor antagonist]", "values": [
      {"measurement": "effect on increase of middle meningeal artery diameter", "setting": "[3]", "result": "blocked"},
      {"measurement": "effect on increased facial blood flow", "setting": "[4]", "result": "inhibited"}
    ]}
  ]
}
